This passage reports GI50 and TGI results from PubChem BioAssay (NCI).

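A five-concentration, 48-hour dose response in 96-well plates underlies each endpoint, interpolated linearly between surrounding concentrations. Here, GI50 denotes the concentration required for 50% inhibition of growth. At the TGI there is no net growth.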

Some test systems named below: HCT-15 colon; LOX IMVI melanoma; LXFL 529 NSCLC; M19-MEL melanoma; OVCAR-3 ovarian; SW-620 colon; BT-549 breast; MCF7 breast; NCI-H23 lung; DMS 114 small cell lung.
Experiment in all cases: NCI-60 cell line screen, 48 h

In the case of `CC(=O)[CH-]C(=O)c1ccccc1.CC(=O)[CH-]C(=O)c1ccccc1.CCOCC[O-].CCOCC[O-].[Ti+4]`, the GI50 with HCT-15 colon is 28.3 µM; in the test with LOX IMVI melanoma, 37.8 µM; with LXFL 529 NSCLC, 12.2 µM; with M19-MEL melanoma, 18.9 µM; with OVCAR-3 ovarian it was 21.6 µM; in the test with SW-620 colon, 28.3 µM. Further, the TGI was 91.9 µM in the test on HCT-15 colon; above 100 µM in the test with LOX IMVI melanoma; 29.1 µM in the test with LXFL 529 NSCLC; 43.4 µM in the test with M19-MEL melanoma; above 100 µM with OVCAR-3 ovarian; above 100 µM in the test on SW-620 colon.

For `CCN(CC)CCCC(C)N=C(C1=C(C(=NC(C)CCCN(CC)CC)c2cccc(OC)c2)C(=O)NC1=O)c1cccc(OC)c1` (stereo unspecified), the GI50 in the test with BT-549 breast is 2.24 µM; with HCT-15 colon, 1.47 µM; in the test on LOX IMVI melanoma, 0.992 µM; in the test on MCF7 breast it was 1.25 µM; with NCI-H23 lung, 2520 nM; in the test with OVCAR-3 ovarian, 1.45 µM. Moreover, the GI50 in the test with SW-620 colon was 0.71 µM. Also, the TGI stood at 8.44 µM with BT-549 breast; 5.53 µM in the test on HCT-15 colon; 2.06 µM in the test with LOX IMVI melanoma; 3.51 µM with MCF7 breast; 9.11 µM in the test with NCI-H23 lung; 4.11 µM in the test on OVCAR-3 ovarian. The compound also came in with a TGI in the test on SW-620 colon of 2.38 µM.

For `CN/N=C(\C)C(CN(C)C)C(c1ccccc1)c1c(O)c2ccccc2oc1=O` (stereo unspecified), the TGI in the test with BT-549 breast, with HCT-15 colon, in the test with LOX IMVI melanoma, with MCF7 breast, with NCI-H23 lung and with OVCAR-3 ovarian was above 100 µM throughout. Further, the TGI in the test on SW-620 colon was above 100 µM.

For `CCCN(CCCC(NC(C)=O)C(=O)NCc1ccccc1)C(=O)NCCCl` (stereo unspecified), the TGI with DMS 114 small cell lung, with HCT-15 colon, in the test with LXFL 529 NSCLC, in the test with M19-MEL melanoma, with NCI-H23 lung and with OVCAR-3 ovarian was above 100 µM each time. Further, the TGI in the test with SW-620 colon is above 100 µM.

On to `COc1nc(N)nc2c1ncn2C1OC(CO)C(O)C1O` (stereo unspecified), for which the GI50 in the test with BT-549 breast is above 5000 µM; in the test on HCT-15 colon it was above 5000 µM; in the test with LOX IMVI melanoma, 3540 µM; with MCF7 breast, 3800 µM; in the test on NCI-H23 lung, 909000 nM; with OVCAR-3 ovarian it was above 5000 µM. Besides, the GI50 in the test with SW-620 colon is above 5000 µM. Besides, the TGI in the test on BT-549 breast, in the test on HCT-15 colon, with LOX IMVI melanoma, in the test on MCF7 breast, with NCI-H23 lung and in the test on OVCAR-3 ovarian was above 5000 µM in each case. The TGI in the test on SW-620 colon was above 5000 µM.

Turning to `COC(=O)Cc1ccc(Oc2cnc3cc(F)c(F)cc3n2)cc1`, the GI50 with BT-549 breast is above 100 µM; in the test with HCT-15 colon, above 100 µM; with LOX IMVI melanoma, above 100 µM; in the test on MCF7 breast, above 100 µM; in the test on NCI-H23 lung, 68400 nM; in the test on OVCAR-3 ovarian, 93.3 µM. In the test with SW-620 colon, the GI50 was above 100 µM. Further, the TGI in the test with BT-549 breast, with HCT-15 colon, in the test on LOX IMVI melanoma, in the test on MCF7 breast, in the test on NCI-H23 lung and in the test with OVCAR-3 ovarian was above 100 µM in each case. Besides, the TGI in the test with SW-620 colon was above 100 µM.

As for `COc1ccc(C(=O)c2cc3c(N)c(C(=O)Nc4ccc(C)cc4)sc3nc2C)cc1`, the GI50 in the test on BT-549 breast was 4.83 µM; in the test on HCT-15 colon it was 1.27 µM; with LOX IMVI melanoma, 4.94 µM; in the test with MCF7 breast, 1.43 µM; in the test with NCI-H23 lung, 6240 nM; in the test on OVCAR-3 ovarian, 2.25 µM. In addition, the GI50 in the test with SW-620 colon was 3.61 µM. Besides, the TGI in the test with BT-549 breast was 41.8 µM; with HCT-15 colon, above 100 µM; with LOX IMVI melanoma, above 100 µM; in the test on MCF7 breast, above 100 µM; in the test with NCI-H23 lung, 44 µM; in the test with OVCAR-3 ovarian, 7.18 µM. Further, the TGI with SW-620 colon is above 100 µM.

On to `CN1C(=O)N[C@H]2[C@@H]3NC(=O)c4ccc(Br)n4[C@@H]3C[C@]21O`, for which the GI50 was 0.0739 µM in the test with BT-549 breast; 0.979 µM in the test on HCT-15 colon; 0.369 µM with LOX IMVI melanoma; 0.0281 µM in the test on MCF7 breast; 96.8 nM in the test with NCI-H23 lung; 0.121 µM in the test on OVCAR-3 ovarian. In the test on SW-620 colon, the GI50 is 0.116 µM. Besides, the TGI in the test on BT-549 breast came to 0.405 µM; in the test with HCT-15 colon, 8.49 µM; in the test on LOX IMVI melanoma, 3.37 µM; with MCF7 breast, 1.08 µM; with NCI-H23 lung it was 1.42 µM; in the test with OVCAR-3 ovarian, 1.85 µM. The compound further returned a TGI in the test with SW-620 colon of 12.5 µM.

On to `Cc1nc(N2CCC3(CC2)CO[C@@H](C)[C@H]3N)c(CO)nc1Sc1ccnc(N)c1Cl`, for which the GI50 in the test with BT-549 breast was 6.56 µM; in the test on HCT-15 colon, above 100 µM; in the test with LOX IMVI melanoma, 72.4 µM; in the test with MCF7 breast it was above 92.4 µM; in the test with NCI-H23 lung, 329 nM; in the test with OVCAR-3 ovarian, above 85.3 µM. Besides, the GI50 in the test on SW-620 colon is above 100 µM. Moreover, the TGI in the test with BT-549 breast, with HCT-15 colon, in the test on LOX IMVI melanoma, in the test with MCF7 breast, in the test with NCI-H23 lung and with OVCAR-3 ovarian was above 100 µM throughout. The same compound registered a TGI in the test on SW-620 colon above 100 µM.

For the compound `COc1cccc(NC(=O)c2sc3nc4c(cc3c2N)C(=O)CCC4)c1`, the GI50 in the test on BT-549 breast is 0.282 µM; in the test on HCT-15 colon, 0.0686 µM; in the test on LOX IMVI melanoma it was 1.71 µM; with MCF7 breast, 0.0443 µM; in the test with NCI-H23 lung it was 346 nM; in the test with OVCAR-3 ovarian, 0.0612 µM. The GI50 in the test with SW-620 colon is 0.0571 µM. Moreover, the TGI in the test with BT-549 breast is above 90.5 µM; in the test on HCT-15 colon it was above 100 µM; with LOX IMVI melanoma, above 100 µM; with MCF7 breast it was above 100 µM; with NCI-H23 lung, above 100 µM; in the test with OVCAR-3 ovarian it was 0.653 µM. For the same compound, the TGI in the test on SW-620 colon is above 100 µM.

Take `Cc1cc(C)c(NC(=S)NC(=O)c2ccccc2)cc1C`: the TGI in the test on BT-549 breast, with HCT-15 colon, in the test with LOX IMVI melanoma, in the test on MCF7 breast, in the test with NCI-H23 lung and in the test with OVCAR-3 ovarian was above 100 µM each time. Further, the TGI in the test on SW-620 colon is above 100 µM.
